{"source": "paper PMC5762315", "about": "“Inhibition of polo-like kinase 4 (PLK4): a new therapeutic option for rhabdoid tumors and pediatric medulloblastoma” (Oncotarget, 2017)", "assay_in_all_cases": "biochemical", "type_in_all_cases": "biochemical", "key": {"various kinases [1]": {"biological_target": "various kinases (Homo sapiens, UniProt P00533, L858R)", "conditions": "EGFR (ErbB1) L858R"}, "various kinases [2]": {"biological_target": "various kinases (Homo sapiens, UniProt P09619)", "conditions": "PDGFRB (PDGFR beta)"}, "various kinases [3]": {"biological_target": "various kinases (Homo sapiens, UniProt Q8N568)", "conditions": "DCAMKL2 (DCK2)"}, "various kinases [4]": {"biological_target": "various kinases (Homo sapiens, UniProt P10721)", "conditions": "KIT"}, "various kinases [5]": {"biological_target": "various kinases (Homo sapiens, UniProt Q9H1R3)", "conditions": "MYLK2 (skMLCK)"}, "various kinases [6]": {"biological_target": "various kinases (Homo sapiens, UniProt P00533, C797S)", "conditions": "EGFR (ErbB1) C797S"}, "various kinases [7]": {"biological_target": "various kinases (Homo sapiens, UniProt P42679)", "sequence (P42679 whole entry)": "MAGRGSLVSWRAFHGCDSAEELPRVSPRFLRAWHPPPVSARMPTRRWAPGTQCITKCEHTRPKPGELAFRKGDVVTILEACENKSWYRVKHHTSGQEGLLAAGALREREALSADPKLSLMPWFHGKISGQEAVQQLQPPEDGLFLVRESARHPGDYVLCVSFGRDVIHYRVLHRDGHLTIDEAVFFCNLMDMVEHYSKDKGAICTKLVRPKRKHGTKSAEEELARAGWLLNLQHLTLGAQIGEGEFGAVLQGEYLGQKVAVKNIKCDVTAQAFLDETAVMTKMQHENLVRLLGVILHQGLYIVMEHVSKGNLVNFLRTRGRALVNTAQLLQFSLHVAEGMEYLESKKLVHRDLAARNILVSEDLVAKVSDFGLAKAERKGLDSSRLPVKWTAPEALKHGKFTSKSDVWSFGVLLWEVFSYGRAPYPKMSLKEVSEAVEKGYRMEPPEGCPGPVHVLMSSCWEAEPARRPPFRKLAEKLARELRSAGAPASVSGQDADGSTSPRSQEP", "conditions": "MATK (HYL)"}, "various kinases [8]": {"biological_target": "various kinases (Homo sapiens, UniProt Q9NQU5)", "conditions": "PAK6"}, "various kinases [9]": {"biological_target": "various kinases (Homo sapiens, UniProt O00418)", "conditions": "EEF2K"}, "various kinases [10]": {"biological_target": "various kinases (Homo sapiens, UniProt Q9Y6M4)", "conditions": "CSNK1G3 (CK1 gamma 3)"}, "various kinases [11]": {"tested_on": "various kinases", "conditions": "for % Inhibition Average / % Inhibition Duplicate #1 / % Inhibition Duplicate #2: ZLYTE"}, "various kinases [12]": {"biological_target": "various kinases (Homo sapiens, UniProt Q13464)", "sequence (Q13464 whole entry)": "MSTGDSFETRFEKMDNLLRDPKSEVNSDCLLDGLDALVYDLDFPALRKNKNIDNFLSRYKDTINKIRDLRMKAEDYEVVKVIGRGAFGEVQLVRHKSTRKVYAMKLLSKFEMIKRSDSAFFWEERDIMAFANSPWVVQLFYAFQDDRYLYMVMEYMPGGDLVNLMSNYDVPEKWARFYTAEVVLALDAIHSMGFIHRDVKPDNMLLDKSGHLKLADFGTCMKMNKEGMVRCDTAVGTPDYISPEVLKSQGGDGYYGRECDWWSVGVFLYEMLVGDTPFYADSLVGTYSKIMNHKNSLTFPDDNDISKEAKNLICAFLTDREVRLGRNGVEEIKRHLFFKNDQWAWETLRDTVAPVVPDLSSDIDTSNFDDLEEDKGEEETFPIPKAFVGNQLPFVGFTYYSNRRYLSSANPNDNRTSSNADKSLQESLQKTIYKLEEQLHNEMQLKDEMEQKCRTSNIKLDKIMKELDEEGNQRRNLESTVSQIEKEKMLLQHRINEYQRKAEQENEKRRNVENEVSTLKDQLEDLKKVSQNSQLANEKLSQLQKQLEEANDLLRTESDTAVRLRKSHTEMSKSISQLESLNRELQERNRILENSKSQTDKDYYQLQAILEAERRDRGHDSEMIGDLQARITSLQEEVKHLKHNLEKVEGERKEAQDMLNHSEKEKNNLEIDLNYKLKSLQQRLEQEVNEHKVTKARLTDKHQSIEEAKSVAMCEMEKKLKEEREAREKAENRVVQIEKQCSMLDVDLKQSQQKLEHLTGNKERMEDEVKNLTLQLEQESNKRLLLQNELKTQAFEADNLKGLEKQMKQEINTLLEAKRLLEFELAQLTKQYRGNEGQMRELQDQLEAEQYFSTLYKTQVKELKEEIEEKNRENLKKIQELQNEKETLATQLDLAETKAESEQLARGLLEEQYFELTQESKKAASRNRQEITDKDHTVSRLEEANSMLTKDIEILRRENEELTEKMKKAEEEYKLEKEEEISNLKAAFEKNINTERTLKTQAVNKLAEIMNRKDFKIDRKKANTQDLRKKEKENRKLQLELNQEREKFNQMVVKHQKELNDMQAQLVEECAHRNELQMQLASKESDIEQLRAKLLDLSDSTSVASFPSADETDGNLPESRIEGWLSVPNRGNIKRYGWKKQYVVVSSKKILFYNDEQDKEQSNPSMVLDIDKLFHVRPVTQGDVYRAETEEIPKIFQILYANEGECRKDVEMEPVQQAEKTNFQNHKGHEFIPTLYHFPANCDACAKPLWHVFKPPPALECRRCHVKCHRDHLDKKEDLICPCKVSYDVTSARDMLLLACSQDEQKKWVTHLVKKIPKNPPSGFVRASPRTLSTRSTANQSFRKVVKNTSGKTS", "conditions": "kinase ROCK1; ZLYTE"}, "various kinases [13]": {"biological_target": "various kinases (Homo sapiens, UniProt Q14680)", "conditions": "MELK"}, "various kinases [14]": {"biological_target": "various kinases (Homo sapiens, UniProt P49760)", "sequence (P49760 whole entry)": "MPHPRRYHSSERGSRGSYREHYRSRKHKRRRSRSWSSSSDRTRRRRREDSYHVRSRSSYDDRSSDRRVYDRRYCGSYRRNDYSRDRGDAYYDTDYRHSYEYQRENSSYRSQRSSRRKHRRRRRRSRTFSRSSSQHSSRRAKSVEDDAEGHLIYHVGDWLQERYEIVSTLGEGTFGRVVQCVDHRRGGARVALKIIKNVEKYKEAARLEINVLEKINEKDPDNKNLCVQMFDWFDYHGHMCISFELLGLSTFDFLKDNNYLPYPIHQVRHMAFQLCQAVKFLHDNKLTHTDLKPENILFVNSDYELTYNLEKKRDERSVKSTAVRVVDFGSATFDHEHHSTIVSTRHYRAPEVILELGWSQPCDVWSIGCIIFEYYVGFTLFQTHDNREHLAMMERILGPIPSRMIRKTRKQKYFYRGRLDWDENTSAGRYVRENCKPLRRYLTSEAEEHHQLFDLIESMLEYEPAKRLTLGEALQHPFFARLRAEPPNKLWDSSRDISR", "conditions": "CLK2"}, "various kinases [15]": {"biological_target": "various kinases (Homo sapiens, UniProt O75676)", "sequence (O75676 whole entry)": "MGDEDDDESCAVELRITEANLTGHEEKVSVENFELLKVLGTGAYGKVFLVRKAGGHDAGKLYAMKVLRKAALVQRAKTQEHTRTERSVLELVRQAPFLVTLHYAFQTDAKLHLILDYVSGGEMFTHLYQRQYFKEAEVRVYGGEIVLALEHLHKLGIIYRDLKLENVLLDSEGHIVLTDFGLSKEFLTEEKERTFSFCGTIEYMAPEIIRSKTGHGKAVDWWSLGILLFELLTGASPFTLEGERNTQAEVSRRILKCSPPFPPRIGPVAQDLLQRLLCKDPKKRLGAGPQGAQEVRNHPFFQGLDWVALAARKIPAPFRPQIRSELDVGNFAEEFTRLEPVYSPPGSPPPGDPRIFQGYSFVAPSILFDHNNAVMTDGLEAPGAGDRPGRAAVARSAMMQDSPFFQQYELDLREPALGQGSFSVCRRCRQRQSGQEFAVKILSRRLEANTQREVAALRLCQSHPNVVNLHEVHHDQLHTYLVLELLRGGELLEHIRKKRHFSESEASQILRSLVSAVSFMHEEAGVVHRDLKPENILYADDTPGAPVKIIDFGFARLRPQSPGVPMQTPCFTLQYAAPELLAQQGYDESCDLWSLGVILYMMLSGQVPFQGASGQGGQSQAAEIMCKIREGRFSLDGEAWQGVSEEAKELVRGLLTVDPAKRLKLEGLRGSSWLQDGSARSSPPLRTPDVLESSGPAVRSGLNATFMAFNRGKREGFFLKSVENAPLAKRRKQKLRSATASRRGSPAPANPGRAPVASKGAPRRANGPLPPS", "conditions": "kinase RPS6KA4 (MSK2); ZLYTE"}, "various kinases [16]": {"biological_target": "various kinases (Homo sapiens, UniProt P10721, V559D/V654A)", "sequence (P10721 26-976 V559D/V654A)": "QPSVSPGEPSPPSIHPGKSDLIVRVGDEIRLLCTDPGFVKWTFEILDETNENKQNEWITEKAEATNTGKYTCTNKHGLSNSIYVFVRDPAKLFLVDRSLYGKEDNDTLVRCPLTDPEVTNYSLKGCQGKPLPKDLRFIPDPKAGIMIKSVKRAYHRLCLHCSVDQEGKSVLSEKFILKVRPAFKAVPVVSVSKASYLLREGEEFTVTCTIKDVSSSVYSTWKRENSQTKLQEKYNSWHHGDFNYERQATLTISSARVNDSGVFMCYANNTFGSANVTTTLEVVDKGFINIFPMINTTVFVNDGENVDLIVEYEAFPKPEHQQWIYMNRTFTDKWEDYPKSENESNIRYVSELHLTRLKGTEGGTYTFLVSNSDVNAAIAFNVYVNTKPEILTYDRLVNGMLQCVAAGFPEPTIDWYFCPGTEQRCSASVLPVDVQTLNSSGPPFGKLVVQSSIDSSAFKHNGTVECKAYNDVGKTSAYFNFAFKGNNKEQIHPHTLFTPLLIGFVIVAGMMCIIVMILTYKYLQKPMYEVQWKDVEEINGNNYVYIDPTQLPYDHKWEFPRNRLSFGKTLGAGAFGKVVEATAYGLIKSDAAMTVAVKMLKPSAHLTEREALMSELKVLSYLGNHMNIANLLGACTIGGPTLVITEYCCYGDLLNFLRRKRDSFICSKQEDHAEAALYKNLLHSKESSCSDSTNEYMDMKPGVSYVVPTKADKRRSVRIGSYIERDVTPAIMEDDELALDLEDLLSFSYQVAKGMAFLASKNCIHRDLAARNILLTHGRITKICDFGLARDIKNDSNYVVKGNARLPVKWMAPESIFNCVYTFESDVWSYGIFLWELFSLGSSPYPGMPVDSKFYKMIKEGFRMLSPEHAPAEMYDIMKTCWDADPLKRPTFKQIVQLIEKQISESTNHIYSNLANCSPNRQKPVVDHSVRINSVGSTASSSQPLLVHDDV", "conditions": "KIT V559D V654A"}, "various kinases [17]": {"biological_target": "various kinases (Homo sapiens, UniProt Q05655)", "sequence (Q05655 whole entry)": "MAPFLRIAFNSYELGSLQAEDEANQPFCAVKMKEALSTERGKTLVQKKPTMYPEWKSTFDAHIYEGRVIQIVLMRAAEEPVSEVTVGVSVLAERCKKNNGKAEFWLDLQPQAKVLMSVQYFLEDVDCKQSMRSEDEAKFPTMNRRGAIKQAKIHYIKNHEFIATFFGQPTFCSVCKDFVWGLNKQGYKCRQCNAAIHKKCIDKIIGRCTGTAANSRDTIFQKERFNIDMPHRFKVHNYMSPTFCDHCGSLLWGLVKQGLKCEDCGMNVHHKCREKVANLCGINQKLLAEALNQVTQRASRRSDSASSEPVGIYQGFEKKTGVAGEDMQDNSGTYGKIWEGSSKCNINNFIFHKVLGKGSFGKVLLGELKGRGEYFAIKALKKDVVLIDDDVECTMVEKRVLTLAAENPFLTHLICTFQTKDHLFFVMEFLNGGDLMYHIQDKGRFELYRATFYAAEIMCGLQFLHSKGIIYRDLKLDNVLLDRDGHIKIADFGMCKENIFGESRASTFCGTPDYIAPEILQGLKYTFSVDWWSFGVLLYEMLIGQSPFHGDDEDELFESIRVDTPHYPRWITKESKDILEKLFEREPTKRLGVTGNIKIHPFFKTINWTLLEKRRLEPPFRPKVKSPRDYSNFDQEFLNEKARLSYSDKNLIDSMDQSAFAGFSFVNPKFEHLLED", "conditions": "kinase PRKCD (PKC delta); ZLYTE"}, "various kinases [18]": {"biological_target": "various kinases (Homo sapiens, UniProt P29317)", "conditions": "EPHA2"}, "various kinases [19]": {"biological_target": "various kinases (Homo sapiens, UniProt Q00535)", "sequence (Q00535 whole entry)": "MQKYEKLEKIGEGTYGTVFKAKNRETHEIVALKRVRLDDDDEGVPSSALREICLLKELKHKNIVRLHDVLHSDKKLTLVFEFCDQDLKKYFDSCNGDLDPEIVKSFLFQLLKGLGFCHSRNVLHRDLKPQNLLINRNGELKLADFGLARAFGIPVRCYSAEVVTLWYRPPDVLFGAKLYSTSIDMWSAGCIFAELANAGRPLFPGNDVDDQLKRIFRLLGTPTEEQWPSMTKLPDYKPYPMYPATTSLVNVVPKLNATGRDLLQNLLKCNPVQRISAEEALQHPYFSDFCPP"}, "various kinases [20]": {"biological_target": "T1, various kinases (Homo sapiens, UniProt Q9UL54)", "T1 sequence (Q9UL54 1-1235)": "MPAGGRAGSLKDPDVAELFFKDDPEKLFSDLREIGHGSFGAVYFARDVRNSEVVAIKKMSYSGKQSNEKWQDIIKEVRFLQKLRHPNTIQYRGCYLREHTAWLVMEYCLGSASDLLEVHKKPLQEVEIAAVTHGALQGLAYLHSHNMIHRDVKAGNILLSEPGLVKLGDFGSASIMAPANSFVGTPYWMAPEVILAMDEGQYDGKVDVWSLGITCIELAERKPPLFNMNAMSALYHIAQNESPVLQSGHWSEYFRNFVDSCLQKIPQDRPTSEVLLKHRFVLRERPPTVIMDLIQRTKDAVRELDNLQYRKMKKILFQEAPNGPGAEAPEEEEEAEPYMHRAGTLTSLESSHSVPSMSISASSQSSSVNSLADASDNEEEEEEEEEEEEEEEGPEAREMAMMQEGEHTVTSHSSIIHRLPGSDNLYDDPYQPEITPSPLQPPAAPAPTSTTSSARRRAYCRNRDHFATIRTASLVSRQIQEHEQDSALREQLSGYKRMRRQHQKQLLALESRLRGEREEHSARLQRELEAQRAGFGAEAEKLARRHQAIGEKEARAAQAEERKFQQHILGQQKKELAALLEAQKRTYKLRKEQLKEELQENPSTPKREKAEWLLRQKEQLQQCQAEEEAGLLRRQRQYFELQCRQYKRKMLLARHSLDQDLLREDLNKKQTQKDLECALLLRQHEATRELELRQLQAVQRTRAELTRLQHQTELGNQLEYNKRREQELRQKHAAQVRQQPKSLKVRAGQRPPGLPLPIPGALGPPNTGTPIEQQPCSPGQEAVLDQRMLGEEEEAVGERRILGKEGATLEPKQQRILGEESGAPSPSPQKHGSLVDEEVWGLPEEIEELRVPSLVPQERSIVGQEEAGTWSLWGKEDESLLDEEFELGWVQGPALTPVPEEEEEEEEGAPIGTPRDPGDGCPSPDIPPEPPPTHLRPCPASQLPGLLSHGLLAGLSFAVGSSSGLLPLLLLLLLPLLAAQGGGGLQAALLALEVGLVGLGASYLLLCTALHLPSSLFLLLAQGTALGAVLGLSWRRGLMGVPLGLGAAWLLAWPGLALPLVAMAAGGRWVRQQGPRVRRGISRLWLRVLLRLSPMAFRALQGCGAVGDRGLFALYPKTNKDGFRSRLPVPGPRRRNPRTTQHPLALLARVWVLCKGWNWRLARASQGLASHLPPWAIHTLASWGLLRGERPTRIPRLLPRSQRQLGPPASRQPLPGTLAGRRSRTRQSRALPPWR", "conditions": "kinase TAOK2 (TAO1); ZLYTE"}, "various kinases [21]": {"biological_target": "various kinases (Homo sapiens, UniProt P42684)", "conditions": "ABL2 (Arg)"}, "various kinases [22]": {"biological_target": "various kinases (Homo sapiens, UniProt O15075)", "conditions": "DCAMKL1 (DCLK1)"}}, "note": "Several values for one entry are separate records, joined by “and”; a condition that tells them apart may be missing. Identical values can stand only once.", "data": [{"smiles": "COc1ccc2c(c1)[C@]1(C[C@H]1c1ccc3c(/C=C/c4ccc(CN5C[C@@H](C)O[C@@H](C)C5)cc4)n[nH]c3c1)C(=O)N2", "note": "[CFI-400945]", "values": [{"measurement": "% Inhibition", "setting": "various kinases [1]", "value": "1% and 2%"}, {"measurement": "% Inhibition", "setting": "various kinases [2]", "value": "3% and 4%"}, {"measurement": "% Inhibition", "setting": "various kinases [3]", "value": "-7% and -1%"}, {"measurement": "% Inhibition", "setting": "various kinases [4]", "value": "9% and 7%"}, {"measurement": "% Inhibition", "setting": "various kinases [5]", "value": "6% and 7%"}, {"measurement": "% Inhibition", "setting": "various kinases [6]", "value": "11% and 5%"}, {"measurement": "% Inhibition", "setting": "various kinases [7]", "value": "6% and 4%"}, {"measurement": "% Inhibition", "setting": "various kinases [8]", "value": "12% and 7%"}, {"measurement": "% Inhibition", "setting": "various kinases [9]", "value": "2% and 3%"}, {"measurement": "% Inhibition", "setting": "various kinases [10]", "value": "2% and -1%"}, {"measurement": "% Inhibition", "setting": "various kinases [11]; LYN B", "value": "7% and 9%"}, {"measurement": "% Inhibition Average", "setting": "various kinases [11]; kinase PRKCB2 (PKC beta II)", "value": 13, "unit": "%"}, {"measurement": "% Inhibition Duplicate #1", "setting": "various kinases [11]; kinase PRKCB2 (PKC beta II)", "value": 12, "unit": "%"}, {"measurement": "% Inhibition Duplicate #2", "setting": "various kinases [11]; kinase PRKCB2 (PKC beta II)", "value": 14, "unit": "%"}, {"measurement": "% Inhibition Average", "setting": "various kinases [11]; kinase SRC N1", "value": 14, "unit": "%"}, {"measurement": "% Inhibition Duplicate #1", "setting": "various kinases [11]; kinase SRC N1", "value": 14, "unit": "%"}, {"measurement": "% Inhibition Duplicate #2", "setting": "various kinases [11]; kinase SRC N1", "value": 14, "unit": "%"}, {"measurement": "% Inhibition Average", "setting": "various kinases [12]", "value": 0, "unit": "%"}, {"measurement": "% Inhibition Duplicate #1", "setting": "various kinases [12]", "value": 0, "unit": "%"}, {"measurement": "% Inhibition Duplicate #2", "setting": "various kinases [12]", "value": 0, "unit": "%"}, {"measurement": "% Inhibition", "setting": "various kinases [13]", "value": "9% and 18%"}, {"measurement": "% Inhibition", "setting": "various kinases [14]", "value": "0% and 7%"}, {"measurement": "% Inhibition Average", "setting": "various kinases [15]", "value": 0, "unit": "%"}, {"measurement": "% Inhibition Duplicate #1", "setting": "various kinases [15]", "value": -2, "unit": "%"}, {"measurement": "% Inhibition Duplicate #2", "setting": "various kinases [15]", "value": 3, "unit": "%"}, {"measurement": "% Inhibition", "setting": "various kinases [16]", "value": "5% and 6%"}, {"measurement": "% Inhibition Average", "setting": "various kinases [17]", "value": -2, "unit": "%"}, {"measurement": "% Inhibition Duplicate #1", "setting": "various kinases [17]", "value": -8, "unit": "%"}, {"measurement": "% Inhibition Duplicate #2", "setting": "various kinases [17]", "value": 4, "unit": "%"}, {"measurement": "% Inhibition", "setting": "various kinases [18]", "value": "14% and 12%"}, {"measurement": "% Inhibition", "setting": "various kinases [19]; CDK5/p25", "value": "6% and 8%"}, {"measurement": "% Inhibition", "setting": "various kinases [19]; CDK5/p35", "value": "2% and 3%"}, {"measurement": "% Inhibition Average", "setting": "various kinases [20]", "value": 4, "unit": "%"}, {"measurement": "% Inhibition Duplicate #1", "setting": "various kinases [20]", "value": 3, "unit": "%"}, {"measurement": "% Inhibition Duplicate #2", "setting": "various kinases [20]", "value": 5, "unit": "%"}, {"measurement": "% Inhibition", "setting": "various kinases [21]", "value": "58% and 63%"}, {"measurement": "% Inhibition", "setting": "various kinases [22]", "value": -2, "unit": "%"}]}]}
